Laboratory results published in patent US20110130427A1, “PESTICIDAL COMPOSITION” (ISHIHARA SANGYO KAISHA, LTD., priority 2008, published 2011).

Assays:
[1] = tested on: serpentine leaf miner (Liriomyza trifolii); assay: Test Example 1: controlling effects against serpentine leaf miner, Example 1 dilution with polyoxyethylene alkyl ether phosphoric acid ester; type: in vivo
Protocol: (§1) The above components are mixed, and the obtained solution is diluted 2,000 times or 4,000 times with water containing a polyoxyethylene alkyl ether phosphoric acid ester, followed by spraying (active ingredient concentration: 25 ppm or 12.5 ppm).
Kidney bean planted in a pot having a diameter of 7 cm was put in a breeding case wherein adults of serpentine leaf miner (Liriomyza trifolii) were released and permitted to lay eggs for 2 days. Thereafter, the test plant was taken out and left for 1 day, and then, a water-diluted liquid containing 100 ppm or 250 ppm of the polyoxyethylene alkyl ether phosphoric acid ester prepared in the above Example 1, was sprayed twice on each of the front and rear sides of the Kidney bean leaf by means of a hand spray. After drying in air, the Kidney bean was left to stand for 5 days in an illuminated constant temperature chamber at 25° C., whereupon the number of pupae on each leaf was counted, and the protective value was calculated by the following formula. The test was repeated twice. As the polyoxyethylene alkyl ether phosphoric acid ester, PHOSPHANOL RD-510Y, PHOSPHANOL RS-610 and PHOSPHANOL RS-710 (manufactured by Toho Chemical Industry Co., Ltd.) and ADEKA COL PS-440E (manufactured by ADEKA) were used.
(§2) For the purpose of comparison, a water-diluted liquid having no polyoxyethylene alkyl ether phosphoric acid ester added, was prepared, and spray treatment was carried out in the same manner.
(§3) Protective value (%)=(1−(the number of pupae at treated section/the number of pupae at untreated section))×100

serpentine leaf miner [2] = assay: Test Example 2: controlling effects against serpentine leaf miner, Example 1 dilution with polyoxyethylene arylether phosphoric acid ester; type: in vivo, Liriomyza trifolii
Protocol: as §1, §3
Kidney bean planted in a pot having a diameter of 7 cm was put in a breeding case wherein adults of serpentine leaf miner were released and permitted to lay eggs for 2 days. Thereafter, the test plant was taken out and left for 1 day, and then, a water-diluted liquid containing 50 ppm of a polyoxyethylene arylether phosphoric acid ester, prepared by replacing the polyoxyethylene alkyl ether phosphoric acid ester in the above Example 1 by a polyoxyethylene arylether phosphoric acid ester, was sprayed twice on each of the front and rear sides of the Kidney bean leaf by means of a hand spray. After drying in air, the Kidney bean was left to stand for 5 days in an illuminated constant temperature chamber at 25° C., whereupon the number of pupae on each leaf was counted, and the protective value was calculated in the same manner as in Test Example 1. The test was repeated twice. As the polyoxyethylene arylether phosphoric acid ester, and ADEKA COL CS-1361E (manufactured by ADEKA) was used.
For the purpose of comparison, a water-diluted liquid n having no polyoxyethylene arylether phosphoric acid ester added, was prepared, and spray treatment was carried out in the same manner.

serpentine leaf miner [3] = assay: Test Example 3: controlling effects against serpentine leaf miner, liquid composition of Example 4 diluted with water; type: in vivo, Liriomyza trifolii
Protocol: […] of Compound 1 and 20.0 g of a polyoxyalkylene phosphoric acid ester surfactant are dissolved in 74.7 g of N,N-dimethylacetamide to obtain 100 g of a transparent liquid composition containing 5 wt % of Compound 1.
as §3
Kidney bean planted in a pot having a diameter of 7 cm was put in a breeding case wherein adults of serpentine leaf miner were released and permitted to lay eggs for 2 days. Thereafter, the test plant was taken out and left for 2 days, the liquid composition obtained in accordance with the above Example 4 was diluted with water to prepare a test liquid containing 50 ppm or 100 ppm of the polyoxyalkylene phosphoric acid ester surfactant. Each test liquid was a suspension solution having fine particles uniformly dispersed. The suspension solution was sprayed twice on each of the front and rear sides of the Kidney bean leaf by means of a hand spray. After drying in air, the Kidney bean was left to stand for 5 days in an illuminated constant temperature chamber at 25° C., whereupon the number of pupae on each leaf was counted, and the protective value was calculated in the same manner as in Test Example 1. The test was repeated twice. As the polyoxyalkylene phosphoric acid ester surfactant, ADEKA COL PS-440E (manufactured by ADEKA) and PHOSPHANOL RS-610 (manufactured by Toho Chemical Industry, Co., Ltd.) as polyoxyethylene alkyl ether phosphoric acid esters, and ADEKA COL CS-1361E (manufactured by ADECA) as a polyoxyethylene arylether phosphoric acid ester were used.
as §2

Structure (SMILES): CC(NC(=O)c1cc(Cl)cc(Br)c1NC(=O)c1cc(Br)nn1-c1ncccc1Cl)C1CC1 (stereo not drawn) [Compound 1, 3-Bromo-N-(2-bromo-4-chloro-6-(1-cyclopropylethylcarbamoyl)phenyl)-1-(3-chloropyridin-2-yl)-1H-pyrazole-5-carboxamide]
- Protective value (%) ([1]; Compound 1 12.5 ppm + PS-440E 100 ppm, foliar spray on Kidney bean, pupae counted after 5 days): 100%
- Protective value (%) ([1]; Compound 1 12.5 ppm + PS-440E 250 ppm, foliar spray on Kidney bean, pupae counted after 5 days): 100%
- Protective value (%) ([1]; Compound 1 12.5 ppm + RD-510Y 250 ppm, foliar spray on Kidney bean, pupae counted after 5 days): 70%
- Protective value (%) ([1]; Compound 1 12.5 ppm + RS-610 250 ppm, foliar spray on Kidney bean, pupae counted after 5 days): 100%
- Protective value (%) ([1]; Compound 1 12.5 ppm + RS-710 250 ppm, foliar spray on Kidney bean, pupae counted after 5 days): 100%
- Protective value (%) ([1]; Compound 1 12.5 ppm, no polyoxyethylene alkyl ether phosphoric acid ester (comparative section)): 0%
- Protective value (%) ([1]; Compound 1 25 ppm + PS-440E 100 ppm, foliar spray on Kidney bean, pupae counted after 5 days): 100%
- Protective value (%) ([1]; Compound 1 25 ppm + PS-440E 250 ppm, foliar spray on Kidney bean, pupae counted after 5 days): 100%
- Protective value (%) ([1]; Compound 1 25 ppm + RD-510Y 250 ppm, foliar spray on Kidney bean, pupae counted after 5 days): 100%
- Protective value (%) ([1]; Compound 1 25 ppm + RS-610 250 ppm, foliar spray on Kidney bean, pupae counted after 5 days): 100%
- Protective value (%) ([1]; Compound 1 25 ppm + RS-710 250 ppm, foliar spray on Kidney bean, pupae counted after 5 days): 100%
- Protective value (%) ([1]; Compound 1 25 ppm, no polyoxyethylene alkyl ether phosphoric acid ester (comparative section)): 0%
- Protective value (%) (serpentine leaf miner [2]; Compound 1 12.5 ppm + CS-1361E 50 ppm, foliar spray on Kidney bean, pupae counted after 5 days): 100%
- Protective value (%) (serpentine leaf miner [2]; Compound 1 12.5 ppm, no polyoxyethylene arylether phosphoric acid ester (comparative section)): 0%
- Protective value (%) (serpentine leaf miner [2]; Compound 1 25 ppm + CS-1361E 50 ppm, foliar spray on Kidney bean, pupae counted after 5 days): 100%
- Protective value (%) (serpentine leaf miner [2]; Compound 1 25 ppm, no polyoxyethylene arylether phosphoric acid ester (comparative section)): 50%
- Protective value (%) (serpentine leaf miner [3]; Compound 1 12.5 ppm + PS-440E 50 ppm (Example 4 composition), foliar spray on Kidney bean, pupae counted after 5 days): 77%
- Protective value (%) (serpentine leaf miner [3]; Compound 1 12.5 ppm + RS-610 50 ppm (Example 4 composition), foliar spray on Kidney bean, pupae counted after 5 days): 89%
- Protective value (%) (serpentine leaf miner [3]; Compound 1 12.5 ppm, no polyoxyalkylene phosphoric acid ester surfactant (comparative section)): 0%
- Protective value (%) (serpentine leaf miner [3]; Compound 1 25 ppm + CS-1361E 100 ppm (Example 4 composition), foliar spray on Kidney bean, pupae counted after 5 days): 100%
- Protective value (%) (serpentine leaf miner [3]; Compound 1 25 ppm, no polyoxyalkylene phosphoric acid ester surfactant (comparative section)): 46%
